SMILES strings stand for the structures.

What all share (assay): cells
Common to all, as to type: cell-based, human

For one assay, the system named is A549. Conditions: read-out: GI50 A549 lung (+p53).
Another assay deals with NCI-H460. Conditions: read-out: GI50 NCI-H460 lung.
A further assay concerns MCF7. To be noted: read-out: GI50 MCF7 breast.
A further assay deals with H1299. Conditions: read-out: GI50 H1299 lung (−p53).
A further assay concerns SF-268. Conditions: read-out: GI50 SF-268 CNS.
The test system of the next assay is HCT-15. To be noted: read-out: GI50 HCT-15 colorectal.
Another assay concerns DU-145. Conditions: read-out: GI50 DU-145 prostate.
For the next assay, the system named is SKOV3. To be noted: read-out: GI50 SKOV3 ovary.
Another assay relates to Hep3b. To be noted: read-out: GI50 Hep3b liver.
In the next assay the test system is HT29. To be noted: read-out: GI50 HT29 colorectal.

Broadly, the GI50 is the concentration giving 50% growth inhibition. With `CON(CCCCc1ccc(N(CCCl)CCCl)cc1)C1OC(CO)C(O)C(O)C1O` (mixture of isomers) [Compound 10], the GI50 was determined as 3400 nM with A549; 9500 ± 700 nM with NCI-H460; 9300 ± 700 nM with MCF7; 530 ± 50 nM in the assay with H1299; 3100 ± 100 nM in the assay with SF-268; 970 ± 70 nM in the assay with HCT-15. Also, the GI50 stood at 5800 ± 100 nM in the assay with DU-145, 3000 ± 100 nM with SKOV3, 4400 ± 300 nM with Hep3b and 600 ± 900 nM with HT29.
Take `CON(CCCCc1ccc(N(CCCl)CCCl)cc1)C1OC(CO)C(O)C(O)C1O` (mixture of isomers) [Compound 11]: the concentration for 50% growth inhibition (GI50) with A549 came to 3500 ± 200 nM; with NCI-H460 it was 10400 ± 800 nM; with MCF7 it was 9000 ± 700 nM; in the assay with H1299, 1300 ± 100 nM; with SF-268, 3200 ± 100 nM; in the assay on HCT-15, 1700 ± 100 nM. For the same molecule, the concentration for 50% growth inhibition (GI50) in the assay with DU-145 stood at 6000 ± 100 nM; with SKOV3, 3100 ± 100 nM; in the assay on Hep3b it was 2500 ± 100 nM; in the assay with HT29 it was 2200 ± 100 nM.
As for `CON(CCCCc1ccc(N(CCCl)CCCl)cc1)C1OC(CO)C(O)C(O)C1O` (mixture of isomers) [Compound 12], the GI50 stood at 2400 ± 100 nM in the assay on A549; 6600 ± 400 nM with NCI-H460; 6500 ± 100 nM in the assay with MCF7; 910 ± 50 nM with H1299; 1900 ± 100 nM in the assay with SF-268; 1400 ± 100 nM with HCT-15. For the same molecule, the GI50 in the assay on DU-145 turned out to be 4100 ± 200 nM; in the assay with SKOV3, 1900 ± 100 nM; in the assay with Hep3b, 1700 ± 100 nM; in the assay on HT29, 1600 ± 200 nM.
Regarding `CON(CCCCc1ccc(N(CCCl)CCCl)cc1)C1OC(CO)C(O)C(O)C1O` (mixture of isomers) [Compound 13], the concentration for 50% growth inhibition (GI50) with A549 came out at 3100 ± 200 nM; with NCI-H460, 7900 ± 500 nM; in the assay on MCF7 it was 7900 ± 800 nM; with H1299, 1300 ± 100 nM; in the assay with SF-268 it was 2300 ± 100 nM; in the assay on HCT-15 it was 1400 ± 100 nM. The GI50 was determined as 4100 ± 100 nM with DU-145, 2500 ± 100 nM in the assay with SKOV3, 2000 ± 100 nM with Hep3b and 2100 ± 200 nM in the assay with HT29.
As for `CON(CCCCc1ccc(N(CCCl)CCCl)cc1)C1OCC(O)C(O)C1O` (mixture of isomers) [Compound 14], the concentration for 50% growth inhibition (GI50) was 2000 ± 100 nM in the assay on A549; 5000 ± 400 nM in the assay on NCI-H460; 4600 ± 100 nM with MCF7; 730 ± 30 nM in the assay on H1299; 1800 ± 100 nM in the assay with SF-268; 900 ± 40 nM in the assay with HCT-15. Moreover, the GI50 in the assay with DU-145 was determined as 3300 ± 100 nM; in the assay with SKOV3, 2000 ± 100 nM; in the assay on Hep3b it was 1600 ± 100 nM; with HT29, 1500 ± 200 nM.
As for `CON(CCCCc1ccc(N(CCCl)CCCl)cc1)C1OCC(O)C(O)C1O` (mixture of isomers) [Compound 15], the GI50 turned out to be 2300 ± 200 nM in the assay on A549; 6100 ± 500 nM in the assay with NCI-H460; 5400 ± 100 nM in the assay on MCF7; 840 ± 40 nM in the assay with H1299; 1900 ± 100 nM with SF-268; 1000 ± 50 nM in the assay on HCT-15. In addition, the GI50 was 3600 ± 100 nM in the assay with DU-145, 2200 ± 100 nM in the assay with SKOV3, 1900 ± 100 nM in the assay with Hep3b and 1900 ± 100 nM in the assay on HT29.
On to `CON(CCCCc1ccc(N(CCCl)CCCl)cc1)C1OC(CO)C(OC2OC(CO)C(O)C(O)C2O)C(O)C1O` (mixture of isomers) [Compound 17], for which the GI50 turned out to be 1600 ± 100 nM in the assay with A549; 3800 ± 300 nM in the assay with NCI-H460; 1700 ± 100 nM in the assay on MCF7; 1800 ± 100 nM in the assay with H1299; 1500 ± 100 nM with SF-268; 2300 ± 100 nM in the assay with HCT-15. The concentration for 50% growth inhibition (GI50) with DU-145 is 1800 ± 100 nM; in the assay on SKOV3, 1800 ± 100 nM; in the assay on Hep3b, 1200 ± 100 nM; with HT29 it was 1900 ± 100 nM.
Regarding `CON(CCCCc1ccc(N(CCCl)CCCl)cc1)C1OC(C)C(O)C(O)C1O` (stereo not shown) [Compound 37], the GI50 in the assay on A549 was determined as 4600 ± 200 nM; in the assay with NCI-H460, 8500 ± 800 nM; with MCF7 it was 5800 ± 100 nM; with H1299, 1800 ± 100 nM; with SF-268, 2900 ± 100 nM; with HCT-15, 1100 ± 100 nM. For the same molecule, the 50% growth inhibitory concentration (GI50) with DU-145 is 4900 ± 100 nM; in the assay on Hep3b, 4400 ± 300 nM; in the assay on HT29, 2200 ± 200 nM.

Values taken from patent publication US8552176B2 (priority 2010, dated 2013).
